Reference: publication PMC3038857, “Using Nuclear Receptor Activity to Stratify Hepatocarcinogens” (PLoS ONE, 2011)
Read-outs that look alike come from different tables or passages of the source.

Tests used:
ABCB1 = assay: CLZD_ABCB1: Change in expression of ABCB1 (primary human hepatocytes); assay type: cell-based; settings: 24 hr
Summary of the method: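 Five-point concentration series (0.004-40 µM) applied to primary human hepatocytes; 6/24/48 hr timepoints; transcript quantified by multiplexed nuclease protection.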

RXRa (RXRA) = target: T1, RXRa (RXRA) (Homo sapiens, UniProt P19793); assay: NCGC_RXRa_Agonist: GAL4 BLAM Reporter gene assay: RXRa; assay type: cell-based; settings: agonist mode; scale not given, looks like -log10 of molar active concentration; 0 = no activity
T1 sequence (P19793 227-462 limits assumed): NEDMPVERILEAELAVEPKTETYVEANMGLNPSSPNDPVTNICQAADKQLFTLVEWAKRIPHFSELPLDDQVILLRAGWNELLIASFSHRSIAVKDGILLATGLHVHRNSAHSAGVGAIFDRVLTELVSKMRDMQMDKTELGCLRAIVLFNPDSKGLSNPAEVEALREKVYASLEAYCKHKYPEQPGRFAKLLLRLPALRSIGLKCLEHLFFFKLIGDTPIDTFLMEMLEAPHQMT
Protocol: These assays measure binding constants and enzyme inhibition values for nuclear receptors. The targets include [drawing 67] , [drawing 68] , [drawing 69] , [drawing 70] , [drawing 71] , [drawing 72] , [drawing 73] , [drawing 74] , [drawing 75] and [drawing 76] . Each of the nuclear receptor targets was measured in agonist mode. Assays were run at the NIH Chemical Genomics Center (Rockville, MD).
Cell-based HTS Assays: These assays measuring binding constants and enzyme inhibition values for nuclear receptors. The targets include AR, ER, FXR, LXR, PPARα, PPARδ, PPARγ, RXRα, RXRβ and PXR. Each of the nuclear receptor targets was measured in both agonist and antagonist mode, but the antagonist data is still undergoing analysis due to possible interference between cytotoxicity and assay activity, so antagonist mode data were not used in the present analysis. Assays were run at the NIH Chemical Genomics Center (Rockville, MD) as part of the Tox21 collaboration. […] The R^2 was required to be ≥0.5. Values where only the highest concentration exceeded 50% activity were excluded to eliminate weak or false positives. Detailed description of the methods, data and analysis methods for this dataset will be presented in a separate publication.

AR (androgen receptor) = assay: NVS_NR_hAR: Human AR 3H-Methyltrienolone (cell-free HTS); assay type: binding
Description: These are a collection of biochemical assays measuring binding constants and enzyme inhibition values. Chemicals were initially screened at a single concentration in duplicate wells at a concentration of 10 [drawing 63] M for cytochrome P-450 assays and 25 [drawing 64] M for all others. […] These assays were run by Caliper Life Sciences (Hanover, MD) under contract to EPA. Short assay descriptions are available at: http://www.caliperls.com/products/contract-research/in-vitro/.
Cell-free HTS Assays: A collection of biochemical assays measuring binding constants and enzyme inhibition values. […] These assays were run by Caliper Life Sciences (Hanover, MD) under contract to EPA. Short assay descriptions are available at http://www.caliperls.com/products/contract-research/in-vitro/. Values for all endpoints were imported into GeneData Screener (Basel, Switzerland) and normalised to solvent controls from the same plate as the tested compounds and expressed as percent of neutral control. Concentration-response curves were fit in GeneData Screener (Basel, Switzerland) Condeseo module using the Hill equation and AC50 values were determined. […] Detailed description of the methods, data and analysis methods for this dataset are described in a separate publication.

Rat Liver = settings: ref ToxRefDB, cited from earlier work
[1] = scale not given, looks like -log10 of molar active concentration, 0 = no activity
[2] = rat chronic study, liver, neoplastic lesion, coded 6 / 0, code not explained here

| SMILES | CLZD_ABCB1_24 (ABCB1; [1]) | NCGC_RXRa_Agonist (RXRa (RXRA)) | NVS_NR_hAR (AR (androgen receptor); [1]) | CHR_Rat_Liver_3_NeoplasticLesion (Rat Liver; [2]) | other results |
| --- | --- | --- | --- | --- | --- |
| Nc1cnn(-c2ccccc2)c(=O)c1Cl [r56] | 0 | 0 | 0 | 0 |  |
| CCC(C)n1c(=O)[nH]c(C)c(Br)c1=O (stereo not drawn) [r43] | 0 | 0 | 0 | 0 |  |
| COc1cccc(C(=O)NN(C(=O)c2cc(C)cc(C)c2)C(C)(C)C)c1C [row 202] |  |  |  |  | CHR_Rat_Liver_3_NeoplasticLesion (Rat Liver; chronic rat study, liver): 0 |
| CC(C)OC(=O)Nc1cccc(Cl)c1 [r59] | 0 | 0 | 4.936 | 0 |  |
| CCN(CC)C(=O)C(C)Oc1cccc2ccccc12 (stereo not drawn) [row 219] |  |  |  |  | NVS_NR_hAR (AR (androgen receptor)): 5.12 |
| N#Cc1cc(Br)c(O)c(Br)c1 [r44] | 0 | 4.817 | 0 | 0 |  |
| CCCCOCN(C(=O)CCl)c1c(CC)cccc1CC [r46] | 0 | 0 | 0 | 0 |  |
| CSc1nc(NC(C)C)nc(NC(C)C)n1 [r256] |  |  |  |  | CHR_Rat_Liver_3_NeoplasticLesion (Rat Liver; rat, chronic study): 0 |
| Cc1ccccc1CO[C@@H]1C[C@@]2(C(C)C)CC[C@]1(C)O2 [r64] | 0 | 0 | 0 | 0 |  |
| COc1nc(C)nc(NC(=O)NS(=O)(=O)c2ccccc2Cl)n1 [r62] | 0 | 0 | 0 | 0 |  |
| CC(C)(c1ccc(O)cc1)c1ccc(O)cc1 [r40] | 0 | 0 | 4.747 | 0 |  |
| CC(C)N1C(=O)c2ccccc2NS1(=O)=O [r37] | 0 | 0 | 0 | 0 |  |
| CNC(=O)Oc1cccc2ccccc12 [r52] | 0 | 0 | 0 | 6 |  |
| C#CCC1=C(C)[C@H](OC(=O)[C@H]2[C@H](C=C(C)C)C2(C)C)CC1=O [r249] |  |  |  |  | NVS_NR_hAR (AR (androgen receptor)): 4.991; CHR_Rat_Liver_3_NeoplasticLesion (Rat Liver; rat, chronic study): 0 |
| OB(O)O [r41] | 0 | 0 | 0 | 0 |  |
| CCOC(=O)C(Cl)Cc1cc(-n2nc(C)n(C(F)F)c2=O)c(F)cc1Cl (stereo not drawn) [r54] | 0 | 0 | 0 | 0 |  |
| CCCC1COC(Cn2cncn2)(c2ccc(Cl)cc2Cl)O1 (stereo not drawn) [r262] |  |  |  |  | CLZD_ABCB1_24 (ABCB1): 5.099; NVS_NR_hAR (AR (androgen receptor)): 4.367; CHR_Rat_Liver_3_NeoplasticLesion (Rat Liver; rat, chronic study): 0 |
| CCCN(CCC)c1c([N+](=O)[O-])cc(C(F)(F)F)c(N)c1[N+](=O)[O-] [r252] |  |  |  |  | CHR_Rat_Liver_3_NeoplasticLesion (Rat Liver; rat, chronic study): 0 |

| SMILES | CLZD_ABCB1_24 (ABCB1; [1]) | NCGC_RXRa_Agonist (RXRa (RXRA)) | NVS_NR_hAR (AR (androgen receptor); [1]) | CHR_Rat_Liver_3_NeoplasticLesion (Rat Liver; [2]) | other results |
| --- | --- | --- | --- | --- | --- |
| O=C(Nc1ccccc1-c1ccc(Cl)cc1)c1cccnc1Cl [r42] | 0 | 0 | 0 | 0 |  |
| C=CCOC(=O)C(C)(C)OC(=O)c1cc(-n2c(=O)cc(C(F)(F)F)n(C)c2=O)ccc1Cl [r47] | 0 | 0 | 0 | 0 |  |
| N#Cc1c(Cl)c(Cl)c(Cl)c(C#N)c1Cl [r58] | 0 | 0 | 0 |  |  |
| COC(=O)c1ccccc1CS(=O)(=O)NC(=O)Nc1nc(OC)cc(OC)n1 [r33] | 0 | 0 | 0 |  |  |
| CCc1ccc(C(=O)NN(C(=O)c2cc(C)cc(C)c2)C(C)(C)C)cc1 [r290] |  |  |  |  | CHR_Rat_Liver_3_NeoplasticLesion (Rat Liver; chronic study, rat liver): 0 |
| COc1ccc(-c2ccccc2)cc1NNC(=O)OC(C)C [r38] | 0 | 0 | 0 | 0 |  |
| CCSC(=O)N(CC(C)C)CC(C)C [r49] | 0 | 0 | 0 | 0 |  |
| COc1cc(Cl)c(OC)cc1Cl [r57] | 0 | 0 | 0 |  |  |
| CC(C)N1C(=O)N(c2ccccc2)CS/C1=N\C(C)(C)C [r45] | 4.531 | 0 | 0 | 0 |  |
| COc1nc(C)nc(NC(=O)NS(=O)(=O)c2ccccc2Cl)n1 [r63] | 0 | 0 | 0 | 0 |  |
| CC1=C(C(=O)Nc2ccccc2)SCCO1 [r53] | 0 | 0 | 0 | 0 |  |
| CC(C)Oc1cc(-n2nc(C(C)(C)C)oc2=O)c(Cl)cc1Cl [row 225] |  |  |  |  | CHR_Rat_Liver_3_NeoplasticLesion (Rat Liver; chronic rat study, liver): 6 |
| CCc1nn(C)c(C(=O)NCc2ccc(C(C)(C)C)cc2)c1Cl [r291] |  |  |  |  | CHR_Rat_Liver_3_NeoplasticLesion (Rat Liver; chronic study, rat liver): 6 |
| O=C1C2CC=CCC2C(=O)N1SC(Cl)(Cl)Cl (stereo not drawn) [r51] | 0 | 0 | 0 |  |  |
| Cc1c(COC(=O)C2C(/C=C(\Cl)C(F)(F)F)C2(C)C)cccc1-c1ccccc1 (stereo not drawn) [r39] | 4.829 | 0 | 0 | 0 |  |
| CCC(C)Nc1c([N+](=O)[O-])cc(C(C)(C)C)cc1[N+](=O)[O-] (stereo not drawn) [r48] | 0 | 0 | 0 |  |  |
| CC(C)=CC1C(C(=O)OCc2coc(Cc3ccccc3)c2)C1(C)C (stereo not drawn) [r280] |  |  |  |  | CHR_Rat_Liver_3_NeoplasticLesion (Rat Liver; chronic study, rat liver): 0 |
